# Tests used:
# murine TECs = test: Murine TEC cultures (MCT): mRNA expression (qRT-PCR), pSmad1/5/8 immunostaining, proliferation; format: cell-based, mouse
# Method: HK-2 (ATTC, Manassas, USA) are immortalized proximal tubule epithelial cells derived from normal adult human kidney. The murine proximal tubular epithelial cell line MCT was generated from the renal cortex of SJL mice (75). All cells were routinely tested negative for the presence of mycoplasma contamination. None of the cell lines used in this manuscript is listed in the ICLAC and NCBI Biosample database of misidentified cell lines. Cells were cultured in Dulbecco's modified Eagle's (DMEM, Gibco, Carlsbad, USA) medium supplemented with 100 µg/mL penicillin, 100 µg/mL streptomycin and 10% heat-inactivated fetal bovine serum (FBS, Sigma, St. Louis, USA) at 37° C. in 5% CO2. For RNA extractions, cells were seeded in 6 well culture plates at 10^5 cells per well in antibiotic free standard growth medium. […] Cells were harvested for further analysis 6 hours after incubation. To examine de novo protein syntheses, cells were again plated in 6 well culture plates as initially described and then pre-treated with the translation blocker Cycloheximide (CHX, 10 μg/mL, Sigma, St. Louis, USA). After one hour of incubation, 200 pM FK506 was applied for additional 6 hours. One night before transfection, MCT cells were seeded in 6 well culture plates at a concentration of 1.5-2×10^5 per well in antibiotic-free DMEM (Gibco, Carlsbad, USA) supplemented with 10% heat-inactivated fetal bovine serum (FBS, Sigma, St. Louis, USA). For knockdown experiments, 60 pmol siRNA (Santa Cruz Biotechnology, Dallas, USA) or scrambled siRNA (scrRNA, Santa Cruz Biotechnology, Santa Cruz, USA) was transfected, for over-expression experiments, 2 μg plasmid DNA was transfected using Lipofectamine 2000 reagent (Invitrogen, Carlsbad, USA). After 4 hours of incubation, transfection medium was replaced by antibiotic-free medium and cells recovered overnight. For stimulation experiments, cells were stimulated the day after with […] FK506 (Abcam Biochemicals, Cambridge, UK) dissolved in DMSO and harvested after 6 hours of incubation for RNA and protein analysis. For SYBR-based real-time PCR, cDNA synthesis was performed by using DNase I digestion (Invitrogen, Carlsbad, USA) and SuperScript II Reverse Transcriptase (Invitrogen, Carlsbad, USA) according to the manufacturer's protocol. 1 μL of reverse-transcribed cDNA was added to the reaction mixture containing the primer pair (200 nmol/L each) and diluted 2× Fast SYBR Green Master Mix (Applied Biosystems, Carlsbad, USA) in a final volume of 20 μL for each PCR reaction. The real-time PCR reactions were performed in a 96-well reaction plate using the StepOne Plus Real-Time System (Applied Biosystems, Carlsbad, USA) and were done in triplicates. An initiation step at 95° C. for 20 seconds was followed by 40 cycles at 95° C. for 3 to seconds and 60° C. for 30 seconds, with one cycle of dissociation at 95° C. for 15 seconds, 60° C. for 60 seconds, and 95° C. for 15 seconds. The intercalation of SYBR Green dye and its fluorescent signal is directly proportional to the amount of amplified DNA and was transformed into the cycle threshold (Ct). For normalization, the Ct values of the housekeeping genes Gapdh and Actb were subtracted from the Ct values of the gene of interest to generate the dCt values. The relative expression levels were calculated using the equation 2^−ddCt.
# FKBP12/YY1 = FKBP12/YY1 (Mus musculus, UniProt P26883); test: Co-immunoprecipitation after Yy1 pull-down in cultured TECs; format: cell-based; conditions: FK506 added to culture media, IP: Yy1
# Method: CoIP was performed with Protein G Immunoprecipitation Kit (Roche, Basel, Switzerland). Protein A/G PLUS Agarose beads (Santa Cruz Biotechnology, Santa Cruz, USA) were used for the lysate pre-cleaning and pull-down. For each CoIP, 2×10^7 MCT cells have been used following the manufacturer's instructions. Yy1 (ab12132, Abcam Biochemicals, Cambridge, UK), Fkbp12 (ab2918, Abcam Biochemicals, Cambridge, UK), Arnt (3718, Cell Signaling, Danvers, USA), GFP (MA5-15256, Thermo Fisher Scientific, Waltham, USA) and myc-tag antibodies (2276, Cell Signaling, Danvers, USA) were used for immunoprecipitation, detection of co-immunoprecipitated Fkbp12 (ab12132, Abcam Biochemicals, Cambridge, UK), Hif1α ([MUT], Sigma, St. Louis, USA), Ahr (MA1-514, Thermo Fisher Scientific, Waltham, USA), GFP (MA5-15256, Thermo Fisher Scientific, Waltham, USA) and myc-tag (2276, Cell Signaling, Danvers, USA) was performed by immunoblotting.
# [1] = tested on: human proximal tubular epithelial cells (HK2 cells); test: Human TEC cultures (HK2 cells): ARNT/ALK3 and pSmad1/5/8; format: cell-based; conditions: picomolar FK506
# Method: HK-2 (ATTC, Manassas, USA) are immortalized proximal tubule epithelial cells derived from normal adult human kidney. The murine proximal tubular epithelial cell line MCT was generated from the renal cortex of SJL mice (75). All cells were routinely tested negative for the presence of mycoplasma contamination. None of the cell lines used in this manuscript is listed in the ICLAC and NCBI Biosample database of misidentified cell lines. Cells were cultured in Dulbecco's modified Eagle's (DMEM, Gibco, Carlsbad, USA) medium supplemented with 100 µg/mL penicillin, 100 µg/mL streptomycin and 10% heat-inactivated fetal bovine serum (FBS, Sigma, St. Louis, USA) at 37° C. in 5% CO2. For RNA extractions, cells were seeded in 6 well culture plates at 10^5 cells per well in antibiotic free standard growth medium. […] Cells were harvested for further analysis 6 hours after incubation. To examine de novo protein syntheses, cells were again plated in 6 well culture plates as initially described and then pre-treated with the translation blocker Cycloheximide (CHX, 10 μg/mL, Sigma, St. Louis, USA). After one hour of incubation, 200 pM FK506 was applied for additional 6 hours. […] The relative expression levels were calculated using the equation 2^−ddCt.
# FKBP12/YY1, sequence (P26883 whole entry): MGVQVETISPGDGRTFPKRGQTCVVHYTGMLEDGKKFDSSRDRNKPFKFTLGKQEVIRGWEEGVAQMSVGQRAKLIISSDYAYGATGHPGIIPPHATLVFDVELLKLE
smiles,measurement,setting,value
"C=CC[C@@H]1/C=C(\C)C[C@H](C)C[C@H](OC)[C@H]2O[C@@](O)(C(=O)C(=O)N3CCCC[C@H]3C(=O)O[C@H](/C(C)=C/[C@@H]3CC[C@@H](O)[C@H](OC)C3)[C@H](C)[C@@H](O)CC1=O)[C@H](C)C[C@@H]2OC [FK506, tacrolimus]",induction of ALK3 transcription,murine TECs; TECs depleted for HIF1α (Hif1akd) or AHR (Ahrkd),preserved effectiveness
same,"mRNA expression levels of AR, ARNT, CEBPB, CREB1, GATA3, MAX (qRT-PCR)",murine TECs; TECs upon exposure to FK506,increased
same,ALK3 transcription or nuclear pSmad1/5/8 accumulation,murine TECs; TECs with ARNT depleted (Arntkd),failed to induce
same,ALK3 transcription and canonical BMP signaling responses (nuclear pSmad1/5/8),"murine TECs; TECs with Cycloheximide (CHX, 10 μg/mL)",failed to induce
same,ARNT mRNA and protein levels,"murine TECs; TECs with FKBP12 or YY1 depletion, FK506 supplemented",did not additionally induce
same,ALK3 transcription and BMP signaling responses,"murine TECs; TECs with YY1 depleted (Yy1kd), FK506 supplemented",did not additionally induce
same,ARNT transcription,"murine TECs; cultured TECs, FK506 added to culture media",transcriptional ARNT induction
same,pSmad1/5/8,murine TECs; murine TECs,accumulation of pSmad1/5/8
same,FKBP12/YY1 interaction,FKBP12/YY1,not detectable
same,ARNT and ALK3 transcription,[1],equally induced
same,nuclear pSmad1/5/8,[1],nuclear accumulation of pSmad1/5/8

# — patent US12440479B2, “Prevention or treatment of chronic organ injury” (GEORG-AUGUST-UNIVERSITAET GOETTINGEN, STIFTUNG …, priority 2018, dated 2025)
